Measured values reported in PMC10771296, “Plectasin: from evolution to truncation, expression, and better druggability” (Frontiers in Microbiology, 2023).
Values after ≈ are worked out from the molar mass of the structure shown. “Also recorded” adds a separate entry of the source. Where a SMILES comes first, the peptide text is derived from it. Bridges are numbered along the chain shown (N, C = ends).

Assays:
S. aureus ATCC 43300 = assay: Inhibition zone screening of expression supernatants; type: cell-based, Staphylococcus aureus; conditions: induced supernatant of P. pastoris X-33 transformants, 48-well plates, 120 h
Excerpt: The recombinant expression vector was constructed by ligating the designed and optimized sequence to the pPICZαA inducible expression vector, relying on the preference of the codon of P. pastoris. The linearized plasmid was transferred into P. pastoris X-33 for expression and the resulting product was verified for activity using an inhibition zone assay (against S. aureus ATCC 43300) before the active peptide was expressed at a high density in a 5-L fermenter ([Mao et al., 2015]). The supernatant was purified using the AKTA Express system. The fermentation supernatant was collected by centrifugation (5,000 rmp, 30 min), filtered with micro-filtration membranes ([…]). According to the isoelectric point of the target product, the corresponding A (50 mM sodium phosphate buffer, pH 6.7) and B (50 mM sodium phosphate buffer, 600 mM NaCl, pH 6.7) buffers were configured and purified by HiPrep SP FF cation exchange column (GE Healthcare). The protein samples were eluted by increasing the NaCl concentration in a stepwise manner, and the corresponding elution peak was collected. The purified product was verified using tricine-sodium dodecyl sulfate-polyacrylamide gel electrophoresis (Tricine-SDS-PAGE) and matrix-assisted laser desorption/ionization–time-of-flight mass spectrometry (MALDITOF MS) ([Zhang et al., 2014]).
A total of 15 recombinant plasmids were constructed. […]

mouse erythrocytes = assay: Hemolysis; type: cell-based; conditions: 8% mouse erythrocyte suspension, 37°C
Procedure: The hemolytic properties of the peptides were evaluated by measuring the amount of hemoglobin released from fresh mouse erythrocytes ([Yang et al., 2019]). Blood was collected from mice in sodium heparin anticoagulation tubes, and the erythrocytes were washed three or more times with 0.9% saline to obtain an 8% erythrocyte suspension. The erythrocyte suspension was mixed with an equal volume of Ple-AB at concentrations of 0.5–256 μg/mL, incubated at 37°C, and the absorbance values were measured at 540 nm. PBS and 0.1% Triton X-100 were used as the blank (A0) and positive controls (A100), respectively. Hemolysis (%) = [(A – A0)/(A100 – A0)] × 100, and three replicates were conducted for each case.

ICR mice [1] = assay: In vivo safety: hematological indices; parameters: RDW-CV / MCHC: unit not given here; conditions: 10 mg/kg i.p. for six consecutive days, blood on 7th day
Procedure: (§1) Eight 6-week-old ICR mice were randomly divided into two groups and injected intraperitoneally with Ple-AB (10 mg/kg, body weight) and saline for six consecutive days. […] They were weighed daily, and blood was collected on the 7th day for hematological and biochemical analyses. Simultaneously, the heart, liver, spleen, lungs, and kidneys were collected for tissue fixation and hematoxylin–eosin (HE) staining to observe any pathological changes ([Shishkina et al., 2023]).

S. aureus ATCC43300 [2] = assay: pH stability read out as MIC; type: physicochemical, Staphylococcus aureus; conditions: for MIC after pH treatment: triplicates
Procedure: The stability of Ple-AB was assessed based on its antibacterial activity against S. aureus ATCC43300. Temperature stability was determined by incubation at 20, 40, 60, 80, and 100°C for 1 h ([Li et al., 2020]). The pH stability was determined by incubation in buffers with a pH of 2, 4, 6, 8, and 10 for 4 h ([Yang et al., 2017]). The peptides were incubated with different concentrations of metal ions, serum, artificial gastric fluid, and simulated intestinal fluid to assess their stability in the blood and intestines ([Lyu et al., 2019]). All the treatments were performed in triplicates.

S. aureus E48 = assay: MIC/MBC, micro broth dilution; type: cell-based, Staphylococcus aureus
Procedure: (§2) The minimum inhibitory concentration (MIC) of the peptides was assayed using the micro broth dilution method, which is an important indicator of the antibacterial activity of the AMPs ([Liu et al., 2021]). […] The MIC was defined as the lowest concentration of ones at which no visible bacterial growth was observed. All the assays were repeated thrice.

S. aureus ATCC43300 [3] = assay: MIC/MBC, micro broth dilution; type: cell-based, Staphylococcus aureus
Procedure: as §2

S. aureus CVCC546 = assay: MIC/MBC, micro broth dilution; type: cell-based, Staphylococcus aureus
Procedure: as §2

S. aureus ATCC25923 = assay: MIC/MBC, micro broth dilution; type: cell-based, Staphylococcus aureus
Procedure: as §2

ICR mice [4] = assay: In vivo safety: body weight and HE histology; conditions: 10 mg/kg i.p. for six consecutive days
Procedure: as §1

[5] = micro broth dilution, 1 × 10^5 CFU/mL, repeated thrice

SMILES: CC[C@H](C)[C@@H]1NC(=O)[C@H](CO)NC(=O)[C@H](CCCCN)NC(=O)[C@@H]2CSSC[C@@H](C(=O)N[C@@H](Cc3ccc(O)cc3)C(=O)O)NC(=O)[C@H](CCCCN)NC(=O)[C@@H]3CSSC[C@H](NC(=O)[C@H](CCC(N)=O)NC(=O)[C@H](CCSC)NC(=O)[C@H](CCC(=O)O)NC(=O)[C@H](CC(=O)O)NC(=O)[C@H](Cc4c[nH]c5ccccc45)NC(=O)[C@@H]4CCCN4C(=O)[C@@H](NC(=O)CNC(=O)[C@H](Cc4ccccc4)NC(=O)CN)CSSC[C@H](NC(=O)[C@H](Cc4ccc(O)cc4)NC(=O)CNC(=O)CNC(=O)[C@H](CCCCN)NC(=O)[C@H](Cc4ccc(O)cc4)NC(=O)CNC(=O)[C@H](CCCCN)NC1=O)C(=O)N[C@@H](C)C(=O)N[C@@H](CCCCN)C(=O)NCC(=O)NCC(=O)N[C@@H](Cc1ccccc1)C(=O)N[C@@H](C(C)C)C(=O)N3)C(=O)N[C@@H](Cc1c[nH]cn1)C(=O)N[C@@H](CC(N)=O)C(=O)N[C@@H](Cc1c[nH]cn1)C(=O)N2 [Ple-AB] (H-GFGCPWDEMQCHNHCKSIKGYKGGYCAKGGFVCKCY-OH; disulfide 4-26, 11-33, 15-35; N-terminus and C-terminus assumed)
- Antibacterial activity in inhibition circle screening (S. aureus ATCC 43300): better antibacterial activity; also recorded: normal or higher activity
- Hemolytic rate (mouse erythrocytes; all concentrations 0.5–256 μg/mL, A540, three replicates): less than 2%
- Hemolytic rate (mouse erythrocytes; highest concentration, 256 μg/mL, A540): 1.07%
- BASO (ICR mice [1]): 0.09 ± 0.027 10^9/L
- BASO % (ICR mice [1]): 1.09 ± 0.34%
- EO (ICR mice [1]): 0.19 ± 0.106 10^9/L
- EO % (ICR mice [1]): 2.33 ± 1.24%
- HBG (ICR mice [1]): 128 ± 12 g/L
- HCT % (ICR mice [1]): 41.3 ± 2.4%
- LYM (ICR mice [1]): 5.89 ± 0.585 10^9/L
- LYM % (ICR mice [1]): 74.8 ± 3.02%
- MCH (ICR mice [1]): 13.48 ± 0.67 pg
- MCHC (ICR mice [1]): 32.86 ± 1.73
- MCV (ICR mice [1]): 41.73 ± 1.17 fL
- MONO (ICR mice [1]): 0.24 ± 0.066 10^9/L
- MONO % (ICR mice [1]): 3 ± 0.49%
- MPV (ICR mice [1]): 6.63 ± 0.57 fL
- NEUT (ICR mice [1]): 1.49 ± 0.354 10^9/L
- NEUT % (ICR mice [1]): 18.78 ± 1.66%
- PCT % (ICR mice [1]): 0.02 ± 0.01%
- PDW % (ICR mice [1]): 15.85 ± 0.75%
- PLCR % (ICR mice [1]): 15.35 ± 3.65%
- PLT (ICR mice [1]): 782.3 ± 48.25 10^9/L
- RBC (ICR mice [1]): 9.44 ± 0.82 10^12/L
- RDW-CV (ICR mice [1]): 18.58 ± 1.97
- RDW-SD % (ICR mice [1]): 44.55 ± 3.65%
- WBC (ICR mice [1]): 7.89 ± 0.94 10^9/L
- Whole blood cell profiles versus control group (ICR mice [1]): not significantly different
- MIC after pH treatment (S. aureus ATCC43300 [2]; buffer pH 2, 4 h): 16 μg/mL
- MIC after pH treatment (S. aureus ATCC43300 [2]; buffer pH 4, 4 h): 16 μg/mL
- MIC after pH treatment (S. aureus ATCC43300 [2]; buffer pH 6, 4 h): 16 μg/mL
- MIC after pH treatment (S. aureus ATCC43300 [2]; buffer pH 8, 4 h): 16 μg/mL
- MIC after pH treatment (S. aureus ATCC43300 [2]; buffer pH 10, 4 h): 32 μg/mL
- Increase of MIC after pH treatment (S. aureus ATCC43300 [2]; pH 10, 4 h, versus control): twofold
- MBC (S. aureus E48; S. aureus E48): 16 µg/mL (≈ 4 µM)
- MIC (S. aureus E48; bovine clinical strain, micro broth dilution, 1 × 10^5 CFU/mL, repeated thrice): 4 µg/mL (≈ 1 µM)
- MBC (S. aureus ATCC43300 [3]; S. aureus ATCC43300): 32 µg/mL (≈ 8 µM)
- MIC (S. aureus ATCC43300 [3]; [5]): 16 µg/mL (≈ 4 µM)
- MIC (S. aureus ATCC43300 [3]; untreated control of the stability test, triplicates): 16 µg/mL (≈ 4 µM)
- MBC (S. aureus CVCC546; S. aureus CVCC546): 16 µg/mL (≈ 4 µM)
- MIC (S. aureus CVCC546; [5]): 8 µg/mL (≈ 2 µM)
- MBC (S. aureus ATCC25923; S. aureus ATCC25923): 64 µg/mL (≈ 16 µM)
- MIC (S. aureus ATCC25923; [5]): 16 µg/mL (≈ 4 µM)
- Histological morphology of heart, liver, spleen, lungs, kidneys (HE staining) (ICR mice [4]; one week after injection, vs saline): no differences in histological morphology
- Body weight change (ICR mice [4]; weighed daily): slight tendency to lose weight on the second day after the injection
